Read-outs that look alike come from different tables or passages of the source. Marks after values point to notes of the source that are not given here. Blank lines part the entries; values can stand above or below the molecule they belong to.
Experiments:
P-gp = assay: in vitro; type: in vitro ADME; settings: pig, LLC-PK1
fasted rat = assay: Acute refeeding assay; type: in vivo; settings: for Inhibition of Food Intake at 1 h (%), 5 mg/kg dose: 5 mg/kg PO
[1] = predicted from PK data across species
5-HT2CR = molecular target: T1, 5-HT2CR (Homo sapiens, UniProt P28335); type: binding
T1 sequence (P28335 33-458): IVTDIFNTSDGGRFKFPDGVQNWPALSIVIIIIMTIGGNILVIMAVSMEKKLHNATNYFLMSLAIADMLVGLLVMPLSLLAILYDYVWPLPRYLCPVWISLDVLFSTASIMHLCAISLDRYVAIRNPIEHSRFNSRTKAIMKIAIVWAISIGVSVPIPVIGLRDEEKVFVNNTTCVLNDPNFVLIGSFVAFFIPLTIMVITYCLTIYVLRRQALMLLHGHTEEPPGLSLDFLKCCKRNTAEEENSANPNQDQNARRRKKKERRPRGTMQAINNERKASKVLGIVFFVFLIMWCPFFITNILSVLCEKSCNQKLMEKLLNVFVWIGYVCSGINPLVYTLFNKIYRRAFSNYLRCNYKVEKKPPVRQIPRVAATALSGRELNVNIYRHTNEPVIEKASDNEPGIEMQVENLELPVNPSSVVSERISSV

[2] = system: Eurofins safety screen panel; settings: at 10 μM
CYP1A2 = molecular target: T2, CYP1A2 (Homo sapiens, UniProt P05177)
T2 sequence (P05177 1-516): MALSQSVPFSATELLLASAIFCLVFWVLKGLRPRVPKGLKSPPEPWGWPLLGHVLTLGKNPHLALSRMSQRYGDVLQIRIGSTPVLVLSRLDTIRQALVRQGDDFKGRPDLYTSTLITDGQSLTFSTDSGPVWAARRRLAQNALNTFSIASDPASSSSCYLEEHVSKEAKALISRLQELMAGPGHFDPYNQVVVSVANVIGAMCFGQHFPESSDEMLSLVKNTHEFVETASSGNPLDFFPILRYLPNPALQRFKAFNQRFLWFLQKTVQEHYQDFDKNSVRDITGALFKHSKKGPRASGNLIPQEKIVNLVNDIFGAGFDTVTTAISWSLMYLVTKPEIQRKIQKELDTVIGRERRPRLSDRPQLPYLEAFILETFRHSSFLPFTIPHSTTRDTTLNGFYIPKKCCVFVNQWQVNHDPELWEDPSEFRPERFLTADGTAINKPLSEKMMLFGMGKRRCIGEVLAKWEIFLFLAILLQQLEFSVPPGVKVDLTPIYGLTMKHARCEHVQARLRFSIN

CYP3A4 = CYP3A4 (Homo sapiens, UniProt P08684)
CYP3A4, sequence (P08684 whole entry): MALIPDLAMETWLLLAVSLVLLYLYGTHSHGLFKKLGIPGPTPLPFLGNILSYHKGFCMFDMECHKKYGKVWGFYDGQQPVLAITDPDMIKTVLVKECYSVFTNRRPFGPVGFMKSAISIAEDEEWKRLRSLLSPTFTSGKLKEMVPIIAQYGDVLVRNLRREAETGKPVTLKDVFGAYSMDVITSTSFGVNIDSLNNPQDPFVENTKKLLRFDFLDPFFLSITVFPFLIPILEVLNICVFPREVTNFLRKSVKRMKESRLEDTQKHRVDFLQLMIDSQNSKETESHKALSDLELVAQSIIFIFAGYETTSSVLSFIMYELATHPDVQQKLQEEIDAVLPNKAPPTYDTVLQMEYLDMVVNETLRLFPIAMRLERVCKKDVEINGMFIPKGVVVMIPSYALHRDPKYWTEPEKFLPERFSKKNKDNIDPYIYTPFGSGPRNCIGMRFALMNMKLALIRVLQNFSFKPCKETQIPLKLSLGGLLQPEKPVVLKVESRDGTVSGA

in vivo = settings: cynomolgus monkey, iv, 2 mg/kg
CYP2C19 = CYP2C19 (Homo sapiens, UniProt P33261)
CYP2C19, sequence (P33261 whole entry): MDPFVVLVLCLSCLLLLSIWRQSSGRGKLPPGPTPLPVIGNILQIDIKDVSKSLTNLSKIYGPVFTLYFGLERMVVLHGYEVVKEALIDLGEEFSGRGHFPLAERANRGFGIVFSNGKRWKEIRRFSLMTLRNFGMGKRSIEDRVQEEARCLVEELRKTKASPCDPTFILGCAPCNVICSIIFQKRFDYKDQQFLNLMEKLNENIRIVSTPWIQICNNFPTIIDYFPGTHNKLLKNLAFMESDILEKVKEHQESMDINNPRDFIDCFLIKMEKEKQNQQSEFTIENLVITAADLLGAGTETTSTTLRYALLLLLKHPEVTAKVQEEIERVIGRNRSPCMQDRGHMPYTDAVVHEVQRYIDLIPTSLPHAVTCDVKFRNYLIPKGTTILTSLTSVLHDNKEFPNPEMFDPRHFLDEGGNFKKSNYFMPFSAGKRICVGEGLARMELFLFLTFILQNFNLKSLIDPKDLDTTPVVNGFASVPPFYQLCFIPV

CYP2D6 = CYP2D6 (Homo sapiens, UniProt P10635)
CYP2D6, sequence (P10635 whole entry): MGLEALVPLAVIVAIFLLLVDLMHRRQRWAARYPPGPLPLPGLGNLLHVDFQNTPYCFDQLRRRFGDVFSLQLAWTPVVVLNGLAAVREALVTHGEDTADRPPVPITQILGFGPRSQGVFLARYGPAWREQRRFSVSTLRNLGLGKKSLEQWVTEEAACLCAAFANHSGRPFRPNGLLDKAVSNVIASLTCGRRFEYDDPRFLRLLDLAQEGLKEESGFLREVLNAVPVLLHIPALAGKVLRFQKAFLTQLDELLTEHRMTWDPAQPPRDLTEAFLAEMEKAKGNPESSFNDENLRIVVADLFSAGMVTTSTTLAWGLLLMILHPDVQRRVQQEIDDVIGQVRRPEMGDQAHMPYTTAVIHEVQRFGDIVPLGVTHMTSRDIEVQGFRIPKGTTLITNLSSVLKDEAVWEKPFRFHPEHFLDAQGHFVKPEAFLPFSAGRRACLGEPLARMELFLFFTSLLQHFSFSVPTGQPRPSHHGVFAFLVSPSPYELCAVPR

CYP2C8 = molecular target: T3, CYP2C8 (Homo sapiens, UniProt P10632)
T3 sequence (P10632 1-490): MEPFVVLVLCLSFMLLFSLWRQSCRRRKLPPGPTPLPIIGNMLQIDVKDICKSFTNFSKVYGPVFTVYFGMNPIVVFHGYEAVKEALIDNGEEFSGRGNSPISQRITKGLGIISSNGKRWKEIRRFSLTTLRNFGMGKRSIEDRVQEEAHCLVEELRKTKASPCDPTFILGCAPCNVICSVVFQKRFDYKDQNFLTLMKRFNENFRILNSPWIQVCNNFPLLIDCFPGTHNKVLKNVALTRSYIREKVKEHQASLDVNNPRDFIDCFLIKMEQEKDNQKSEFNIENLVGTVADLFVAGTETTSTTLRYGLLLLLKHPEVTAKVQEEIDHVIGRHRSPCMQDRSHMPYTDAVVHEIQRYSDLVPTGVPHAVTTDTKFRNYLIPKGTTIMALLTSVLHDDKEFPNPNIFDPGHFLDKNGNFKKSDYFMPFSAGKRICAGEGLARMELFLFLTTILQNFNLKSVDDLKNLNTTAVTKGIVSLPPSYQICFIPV

CYP2C9 = CYP2C9 (Homo sapiens, UniProt P11712)
CYP2C9, sequence (P11712 whole entry): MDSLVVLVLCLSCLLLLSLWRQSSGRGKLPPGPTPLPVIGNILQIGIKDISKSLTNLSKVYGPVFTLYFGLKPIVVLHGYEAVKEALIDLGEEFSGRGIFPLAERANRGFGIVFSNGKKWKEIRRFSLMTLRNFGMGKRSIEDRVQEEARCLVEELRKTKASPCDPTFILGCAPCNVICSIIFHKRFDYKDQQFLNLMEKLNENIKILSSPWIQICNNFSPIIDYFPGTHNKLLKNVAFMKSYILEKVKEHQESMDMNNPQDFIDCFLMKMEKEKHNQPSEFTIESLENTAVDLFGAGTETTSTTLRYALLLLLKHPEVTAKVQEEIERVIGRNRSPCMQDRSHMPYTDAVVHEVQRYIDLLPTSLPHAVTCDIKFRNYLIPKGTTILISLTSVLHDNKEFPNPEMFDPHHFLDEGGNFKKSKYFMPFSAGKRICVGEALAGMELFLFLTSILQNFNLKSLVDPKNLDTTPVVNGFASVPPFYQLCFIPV

major CYP enzymes = assay: CYP time-dependent inhibition
CYP2B6 = molecular target: T4, CYP2B6 (Homo sapiens, UniProt P20813); assay: CYP inhibition; type: in vitro ADME
T4 sequence (P20813 1-491): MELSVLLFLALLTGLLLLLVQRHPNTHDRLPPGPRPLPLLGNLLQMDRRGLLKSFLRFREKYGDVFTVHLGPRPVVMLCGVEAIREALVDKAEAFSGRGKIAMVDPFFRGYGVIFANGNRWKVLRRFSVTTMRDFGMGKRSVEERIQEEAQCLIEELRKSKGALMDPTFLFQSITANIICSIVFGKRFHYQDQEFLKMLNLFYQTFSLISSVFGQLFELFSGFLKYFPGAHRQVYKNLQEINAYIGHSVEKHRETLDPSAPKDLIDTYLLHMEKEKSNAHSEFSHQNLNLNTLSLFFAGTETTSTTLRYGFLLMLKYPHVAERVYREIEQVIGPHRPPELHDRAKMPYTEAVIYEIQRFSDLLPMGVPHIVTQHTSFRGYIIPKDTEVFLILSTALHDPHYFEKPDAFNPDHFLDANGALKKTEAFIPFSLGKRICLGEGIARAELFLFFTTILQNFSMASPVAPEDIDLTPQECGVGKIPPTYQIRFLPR

[3] = Dynamic moisture sorption test; type: physicochemical; settings: 90% relative humidity, 25 °C

Compound: CNC(=O)c1ccc2c3c1C(CC(F)(F)F)CN3CCNC2 (single isomer, unassigned; (+)) [(+)-19a]
- Papp A→B (P-gp): 14.8 ×10⁻⁶ cm/s

Compound: CCCNC(=O)c1ccc2c3c1C(CC(F)(F)F)CN3CCNC2 (single isomer, unassigned; (+)) [(+)-19c]
- Inhibition of Food Intake at 1 h (%) with 10 mg/kg po (fasted rat; 10 mg/kg PO): 53 ^c %

Compound: CCC1CN2CCNCc3ccc(C(=O)NC)c1c32 (single isomer, unassigned; (+)) [(+)-19i]
- Papp A→B (P-gp): 7.73 ×10⁻⁶ cm/s

Compound: CCC1CN2CCNCc3ccc(C(=O)NCC(F)F)c1c32 (single isomer, unassigned; (+)) [(+)-19k, (+)-N-(2,2-Difluoroethyl)-7-ethyl-1,2,3,4,6,7-hexahydro-[1,4]diazepino[6,7,1-hi]indole-8-carboxamide]
- Inhibition of Food Intake at 1 h (%), 5 mg/kg dose (fasted rat): 27 ^d %
- Papp A→B (P-gp): 12.8 ×10⁻⁶ cm/s
- efflux ratio (P-gp): 2.16

Compound: C[C@H]1CN2CCNCc3ccc(C(=O)NCC(F)F)c1c32 [(+)-19m, (+)-N-(2,2-Difluoroethyl)-7-methyl-1,2,3,4,6,7-hexahydro-[1,4]diazepino[6,7,1-hi]indole-8-carboxamide]
- Binding against >140 target Eurofins safety screen panel [2]: < 25%
- Predicted half-life in human by allometric scaling [1]: approximately 7 h
- IC50 (CYP1A2): > 30 µM
- IC50 (CYP3A4): > 30 µM
- CL renal (in vivo): 1.8 mL/h/kg
- IC50 (CYP2C19): > 30 µM
- IC50 (CYP2D6): > 30 µM
- IC50 (CYP2C8): > 30 µM
- Inhibition of Food Intake at 1 h (%), 5 mg/kg dose (fasted rat): 81 ^d %
- IC50 (CYP2C9): > 30 µM
- Rat brain protein-binding: 53%
- CYP time-dependent inhibition (major CYP enzymes): no time-dependent inhibition
- IC50 (CYP2B6): > 30 µM
- Papp A→B (P-gp): 8.9 ×10⁻⁶ cm/s

Compound: C[C@H]1CN2CCNCc3ccc(C(=O)NCC(F)F)c1c32.Cl [(+)-19m. HCl]
- Weight gain in dynamic moisture sorption test [3]: < 0.1%

The next lines start with results.

- Predicted half-life in human by allometric scaling [1]: 3 h
Compound: CNC(=O)c1ccc2c3c1CCN3CCNC2 [7b, N-Methyl-1,2,3,4,6,7-hexahydro-[1,4]diazepino[6,7,1-hi]indole-8-carboxamide]
- Hypophagic effect after preadministration of 5-HT2CR antagonist SB242084 (fasted rat; 10 mg/kg po, 1 h, SB242084 1 mg/kg PO): blocked

- Selectivity for 5-HT2CR over 5-HT2AR and 5-HT2BR in binding assays (5-HT2CR): > 500 fold
Compound: CSCCNC(=O)c1ccc2c3c1CCN3CCNC2 [7j, N-(2-(Methylthio)ethyl)-1,2,3,4,6,7-hexahydro-[1,4]diazepino[6,7,1-hi]indole-8-carboxamide]

- Selectivity for 5-HT2CR over 5-HT2AR and 5-HT2BR in binding assays (5-HT2CR; 125I-DOI binding assay): ~100 fold
Compound: O=C(NCCOc1ccccc1)c1ccc2c3c1CCN3CCNC2 [7p, N-(2-Phenoxyethyl)-1,2,3,4,6,7-hexahydro-[1,4]diazepino[6,7,1-hi]indole-8-carboxamide]

Source: paper PMC12169610 (Journal of Medicinal Chemistry, 2025)
